From US4914086A, “Method for treating African human and veterinary trypanosomiases” (priority 1987, dated 1990)
Entries after “also recorded” stand apart in the source; their conditions may differ.

What was measured:
T. b. brucei LUMP 1001 = assay: CNS model, T. b. brucei LUMP 1001 infection in mice (Table 5); assay type: in vivo, Trypanosoma brucei brucei (in Swiss-Webster mice); conditions: for efficacy in CNS model in words: LUMP 1001
Excerpt: (§1) T. b. brucei EATRO 110 isolate was maintained as described (Bacchi, C. J., H. C. Nathan, S. H. Hutner, P. P. McCann and A. Sjoerdsma; Polyamine metabolism: a potential chemotherapeutic target in trypanosomes. Science 210: 332-334, 1980). It produces an acute, rapidly fatal parasitemia which is lethal to mice 3-5 days after inoculation. Two T. B. brucei strains, TREU 667 and LUMP 1001 developed by Jennings and coworkers (Jennings, F. W., D. D. Whitelaw and G. M. Urquhart; The relationship between duration of infection with Trypanosoma brucei in mice and the efficacy of chemotherapy. Parasitology 75: 143-153, 1977/Jennings, F. W. and G. D. Gray; Relapsed parasitemia following chemotherapy of chronic T. brucei infections in mice and its relation to cerebral trypanosomes; Contr. Microbiol. Immunol. 7 147-154, 1983) were used as CNS models. Both produce infections which are refractory to Berenil® (diminazene aceturate) and develop within 21 days after inoculation. They are not usually fatal until >40 days after inoculation. LUMP 1001 causes a more virulent CNS infection than TREU 667, and is regarded as more difficult to cure (Jennings, F. W. and G. D. Gray. Relapsed parasitemia following chemotherapy of chronic T. brucei infections in mice and its relation to cerebral trypanosomes. Contr. Microbiol. Immunol. 7 147-154, 1983).
The models for […] nervous system infections used TREU 667 and LUMP 1001 strains which were stored frozen and passaged once in rats before infection of mice. Maintenance and use of these screens were as described (Clarkson, A. B. Jr., C. J. Bacchi, G. H. Mellon, H. C. Nathan, P. P. McCann and A. Sjoerdsma. Efficacy of DFMO+blemoycin in a mouse model of central nervous system African trypanosomiasis. Proc. Natl. Acad. Sci. USA. 80: 5729-5733, 1983/Clarkson, A. B. Jr., E. J. Biene, C. J. Bacchi, P. P. McCann, S. H. Hutner and A. Sjoerdsma. New drug combination for experimental late stage African trypanosomiasis: DFMO with suramin. Am. J. Trop. Med. Hyg. 33: 1073-1077, 1984/Dube, D. K., G. Mpimbaza, A. C. Allison, E. Lederer and L. Rovis. Antitrypanosomal activity of sinefungin, Am. J. Trop. Med. Hyg. 32: 31-33, 1983/Fish, W. R., J. J. Marr, R. L. Berens, D. L. Looker, D. J. Nelson, S. LaFon and A. E. Balber. Inosine analogs as chemotherapeutic agents for African trypanosomes: metabolism in trypanosomes and efficacy in tissue culture. Anti-microb. Ag. Chemother. 27: 33-36, 1985/Clazer, R. I., and L. S. Lloyd. Effects of 8-azaadenosine and formycin on cell lethality and the synthesis and methylation of nucleic acids in human colon carcinoma cells in culture. Biochem. Pharmacol. 31: 3207-3214, 1982/Bacchi, C. J., H. C. Nathan, A. B. Clarkson, Jr., E. J. Bienen, A. J. Bitonti, P. P. McCann and A. Sjoerdsma. Activity of the ornithine decarboxylase inhibitors DL-α-difluoromethylornithine and monofluormethyldehydroornithine methylester alone and in combination with suramin against Trypanosoma brucei brucei central nervous system models, Am. J. Trop. Med. Hyg. (in press)). Briefly, groups of 100-120 mice were infected and the infections allowed to develop until day 21, when the animals were separated into groups of 10 and therapy commenced. Controls were treated with Berenil (40 mg/kg) on day 21. […] Parasitemia was followed by examining tail vein blood smears once weekly. Animals which had relapsed were removed from cages.

T. b. brucei EATRO 110 = assay: Drug screen, acute EATRO 110 mouse infection (Tables 1, 3); assay type: in vivo, Trypanosoma brucei brucei (in Swiss-Webster mice)
Excerpt: as §1
Swiss-Webster (25-30 g) mice were used throughout. In the EATRO 110 model, groups of 100 mice were infected (10^5 trypanosomes/mouse) and the infection was allowed to develop 24 hours before commencing therapy. Animals were divided into groups of 5 before treatment. Cured animals survived >30 days beyond deaths of controls. All compounds were administered by i.p. injection.
Other methods as in Table 1.

[1] = Table 1, 5 mg/kg i.p. (9-DINO, sinefungin once daily for 3 days)
[2] = Table 1, 10 mg/kg i.p. (9-DINO, sinefungin once daily for 3 days)
[3] = Table 1, 25 mg/kg i.p. (9-DINO, sinefungin once daily for 3 days)
[4] = Table 1, 50 mg/kg i.p. (9-DINO, sinefungin once daily for 3 days)
[5] = Table 1, 100 mg/kg i.p. (9-DINO, sinefungin once daily for 3 days)
[6] = Table 1, 200 mg/kg i.p. once daily for 3 days
[7] = Table 1, 400 mg/kg i.p. once daily for 3 days
[8] = Table 3, 5 mg/kg i.p. once daily for 3 days
[9] = Table 3, 10 mg/kg i.p. once daily for 3 days
[10] = Table 3, 25 mg/kg i.p. once daily for 3 days
[11] = Table 1, 0.5 mg/kg i.p. once daily for 3 days
[12] = Table 1, 1 mg/kg i.p. once daily for 3 days
[13] = Table 1, 2.5 mg/kg i.p. (9-DINO, sinefungin once daily for 3 days)
[14] = Table 3, 0.5 mg/kg i.p. once daily for 3 days
[15] = Table 3, 1.0 mg/kg i.p. once daily for 3 days

SMILES: O=c1[nH]cnc2c([C@@H]3O[C@H](CO)[C@@H](O)[C@H]3O)c[nH]c12 [9-DINO, 7-beta-D-ribofuranosyl-4-oxo-3H, 5H-pyrrolo (3,2-d) pyrimidine]
- # Cured/Total (T. b. brucei LUMP 1001; 50 mg/kg i.p., 7 days): 0/10
- % Cured (T. b. brucei LUMP 1001; 50 mg/kg i.p., 7 days): 0%
- Avg. Day of Relapse (Range) (T. b. brucei LUMP 1001; 50 mg/kg i.p., 7 days): 36 (35-44) Day
- # Cured/Total (T. b. brucei LUMP 1001; 100 mg/kg i.p., 7 days): 0/9
- % Cured (T. b. brucei LUMP 1001; 100 mg/kg i.p., 7 days): 0%
- Avg. Day of Relapse (Range) (T. b. brucei LUMP 1001; 100 mg/kg i.p., 7 days): 38 (35-44) Day
- # Cured/Total (T. b. brucei LUMP 1001; 250 mg/kg i.p., 7 days): 0/10
- % Cured (T. b. brucei LUMP 1001; 250 mg/kg i.p., 7 days): 0%
- Avg. Day of Relapse (Range) (T. b. brucei LUMP 1001; 250 mg/kg i.p., 7 days): 49 (35-63) Day
- efficacy in CNS model in words (T. b. brucei LUMP 1001): did not cure CNS infections
- cure rate (T. b. brucei EATRO 110; 50-100 mg/kg, EATRO 110): 100%
- curative / active dose range (T. b. brucei EATRO 110; EATRO 110, text): 25 to 200 mg/kg
- # Cured/Total (T. b. brucei EATRO 110; [1]): 0/5
- % Cured (T. b. brucei EATRO 110; [1]): 0%
- # Cured/Total (T. b. brucei EATRO 110; [2]): 2/30
- % Cured (T. b. brucei EATRO 110; [2]): 7%
- # Cured/Total (T. b. brucei EATRO 110; [3]): 15/20
- % Cured (T. b. brucei EATRO 110; [3]): 50%
- # Cured/Total (T. b. brucei EATRO 110; [4]): 4/5
- % Cured (T. b. brucei EATRO 110; [4]): 80%
- # Cured/Total (T. b. brucei EATRO 110; [5]): 5/5
- % Cured (T. b. brucei EATRO 110; [5]): 100%
- # Cured/Total (T. b. brucei EATRO 110; [6]): 5/5
- % Cured (T. b. brucei EATRO 110; [6]): 100%
- # Cured/Total (T. b. brucei EATRO 110; [7]): 3/5
- % Cured (T. b. brucei EATRO 110; [7]): 60%
- # Cured/Total (T. b. brucei EATRO 110; [8]): 0/5
- % Cured (T. b. brucei EATRO 110; [8]): 0%
- # Cured/Total (T. b. brucei EATRO 110; [9]): 2/30
- % Cured (T. b. brucei EATRO 110; [9]): 7%
- # Cured/Total (T. b. brucei EATRO 110; [10]): 15/20
- % Cured (T. b. brucei EATRO 110; [10]): 75%
- activity in the acute (short term) EATRO 110 model, in words (T. b. brucei EATRO 110; listed as 9-deazainosine): greatest activity; also recorded: most active analog of the two
- activity in the acute (short term) EATRO 110 model, in words (T. b. brucei EATRO 110; text summary): greatest activity; also recorded: highly effective; also recorded: active against acute models; also recorded: more effective than sinefungin, allopurinol and allopurinol riboside
- activity in the acute (short term) EATRO 110 model, in words (T. b. brucei EATRO 110; text summary, listed as 9DINO): active against an acute infection

SMILES: Nc1ncnc2c1ncn2[C@@H]1O[C@H](C[C@@H](N)CC[C@H](N)C(=O)O)[C@@H](O)[C@H]1O [Sinefungin, 6,9-Diamino-1-(6-amino-9H-purin-9-yl)-1,5,6,7,8,9-hexadeoxy-beta-D-ribo-decofuranuronic acid]
- # Cured/Total (T. b. brucei LUMP 1001; 2.5 mg/kg i.p., 3 days): 0/10
- % Cured (T. b. brucei LUMP 1001; 2.5 mg/kg i.p., 3 days): 0%
- Avg. Day of Relapse (Range) (T. b. brucei LUMP 1001; 2.5 mg/kg i.p., 3 days): 35 days
- # Cured/Total (T. b. brucei LUMP 1001; 5 mg/kg i.p., 3 days): 0/10
- % Cured (T. b. brucei LUMP 1001; 5 mg/kg i.p., 3 days): 0%
- Avg. Day of Relapse (Range) (T. b. brucei LUMP 1001; 5 mg/kg i.p., 3 days): 35 days
- # Cured/Total (T. b. brucei LUMP 1001; 10 mg/kg i.p., 3 days): 0/10
- % Cured (T. b. brucei LUMP 1001; 10 mg/kg i.p., 3 days): 0%
- Avg. Day of Relapse (Range) (T. b. brucei LUMP 1001; 10 mg/kg i.p., 3 days): 39 (35-71) Day
- efficacy in CNS model in words (T. b. brucei LUMP 1001): did not produce complete cures
- % active (T. b. brucei EATRO 110; 25 mg/kg, single dose): 80%
- # Cured/Total (T. b. brucei EATRO 110; [11]): 0/15
- % Cured (T. b. brucei EATRO 110; [11]): 0%
- # Cured/Total (T. b. brucei EATRO 110; [12]): 0/20
- % Cured (T. b. brucei EATRO 110; [12]): 0%
- # Cured/Total (T. b. brucei EATRO 110; [13]): 0/5
- % Cured (T. b. brucei EATRO 110; [13]): 0%
- # Cured/Total (T. b. brucei EATRO 110; [1]): 9/15
- % Cured (T. b. brucei EATRO 110; [1]): 60%
- # Cured/Total (T. b. brucei EATRO 110; [2]): 8/15
- % Cured (T. b. brucei EATRO 110; [2]): 53%
- # Cured/Total (T. b. brucei EATRO 110; [3]): 4/5
- % Cured (T. b. brucei EATRO 110; [3]): 80%
- # Cured/Total (T. b. brucei EATRO 110; [14]): 0/15
- % Cured (T. b. brucei EATRO 110; [14]): 0%
- # Cured/Total (T. b. brucei EATRO 110; [15]): 0/20
- % Cured (T. b. brucei EATRO 110; [15]): 0%
- # Cured/Total (T. b. brucei EATRO 110; [8]): 9/15
- % Cured (T. b. brucei EATRO 110; [8]): 60%
- # Cured/Total (T. b. brucei EATRO 110; [9]): 8/15
- % Cured (T. b. brucei EATRO 110; [9]): 53%
- # Cured/Total (T. b. brucei EATRO 110; [10]): 4/5
- % Cured (T. b. brucei EATRO 110; [10]): 80%
- % effective (T. b. brucei EATRO 110; single doses of 5 or 10 mg/kg): ~ 50%
- activity in the acute (short term) EATRO 110 model, in words (T. b. brucei EATRO 110; text summary): less active than 9-DINO and Formycin B
